Data: paper PMC9721423, “Novel benzo chromene derivatives: design, synthesis, molecular docking, cell cycle arrest, and apoptosis induction in human acute myeloid leukemia HL-60 cells” (Journal of Enzyme Inhibition and Medicinal Chemistry, 2022)
Read-outs that look alike come from different tables or passages of the source.

What was measured:
Experiment in all cases: cells
Parameters in all cases: species or system NCI-60 human tumour cell lines; NCI-60 five-dose growth inhibition screen, sulforhodamine B protein stain
A498 = conditions: Homo sapiens, A498, 48 h
Description: (§1) All the newly synthesised 28 compounds were selected for single-dose testing. NCI60 single-dose testing is performed in all 60 cell lines according to the reported assay (National Cancer Institute, https://dtp.cancer.gov/) (National Cancer Institute https://dtp.cancer.gov/discovery_development/nci-60/), compounds were dissolved in DMSO: glycerol […] and are stored in a −70 °C freezer. The prepared compounds were added at single concentration of 1 0^−5 M and the culture was incubated for 48 h. End point determinations were made with a protein binding dye, sulforhodamine B (SRB). The human tumour cell lines were derived from nine different cancer types: leukaemia, melanoma, lung, colon, central nervous system (CNS), ovarian, renal, prostate, and breast cancers. Dose–response curves for these compounds were created by plotting the percentage growth (PGs or % growth) against log10 of the corresponding concentration for every cell line. Three response parameters, GI50 (Median Growth Inhibitory Concentration), TGI (Total Growth Inhibitory Concentration), and LC50 (Median Lethal Concentration) were calculated[54] (National Cancer Institute, https://dtp.cancer.gov/discovery_development/nci-60/) (National Cancer Institute, https://dtp.cancer.gov/)[55] for compounds 5a and 6a. […] Furthermore, the average sensitivity of all cell lines towards the compound is termed as the full panel mean graph midpoints (MG-MID). The ratio obtained by dividing the full panel mean graph midpoints (MG-MID) concentration by the individual subpanel MG-MID concentrations (obtained as the average sensitivity of all cell lines of a particular subpanel towards the test compound) is considered a criterion for the compound selectivity towards the corresponding cell line. Ratios greater than 6 indicate high selectivity while ratios between 3 and 6 refer to moderate selectivity whereas compounds not meeting either of these criteria were rated non-selective[56].

A549/ATCC = conditions: Homo sapiens, A549, 48 h
Description: as §1

BT-549 = conditions: Homo sapiens, BT-549, 48 h
Description: as §1

CCRF-CEM = conditions: Homo sapiens, CCRF-CEM, 48 h
Description: as §1

HL-60(TB) = conditions: Homo sapiens, HL-60, 48 h
Description: as §1

K-562 = conditions: Homo sapiens, K562, 48 h
Description: as §1

MCF7 = conditions: Homo sapiens, MCF7, 48 h
Description: as §1

MDA-MB-231/ATCC = conditions: Homo sapiens, MDA-MB-231, 48 h
Description: as §1

MDA-MB-435 = conditions: Homo sapiens, MDA-MB-435, 48 h
Description: as §1

MDA-MB-468 = conditions: Homo sapiens, MDA-MB-468, 48 h
Description: as §1

NCI-H460 = conditions: Homo sapiens, NCI-H460, 48 h
Description: as §1

NCI/ADR-RES = conditions: Homo sapiens, NCI/ADR-RES, 48 h
Description: as §1

OVCAR-8 = conditions: Homo sapiens, OVCAR-8, 48 h
Description: as §1

RPMI-8226 = conditions: Homo sapiens, RPMI-8226, 48 h
Description: as §1

SK-MEL-5 = conditions: Homo sapiens, SK-MEL-5, 48 h
Description: as §1

SK-OV-3 = conditions: Homo sapiens, SK-OV-3, 48 h
Description: as §1

UACC-62 = conditions: Homo sapiens, UACC-62, 48 h
Description: as §1

N=C(NO)C1=C(N)Oc2c(ccc3ccccc23)C1c1ccccc1 (stereo not shown) [5a, 2-Amino-4-phenyl-N-hydroxy-4H-benzo[h]chromene-3-carboxamidine]
GI50 (A498; read-out: GI50 5a): 110 nM | GI50 (A549/ATCC; read-out: GI50 5a): 420 nM | GI50 (BT-549; read-out: GI50 5a): 1250 nM | GI50 (CCRF-CEM; read-out: GI50 5a): 380 nM | GI50 (HL-60(TB); read-out: GI50 5a): 240 nM | GI50 (K-562; read-out: GI50 5a): 60 nM | GI50 (MCF7; read-out: GI50 5a): 210 nM | GI50 (MDA-MB-231/ATCC; read-out: GI50 5a): 630 nM | GI50 (MDA-MB-435; read-out: GI50 5a): 30 nM | GI50 (MDA-MB-468; read-out: GI50 5a): 1990 nM | GI50 (NCI-H460; read-out: GI50 5a): 310 nM | GI50 (NCI/ADR-RES; read-out: GI50 5a): 60 nM | GI50 (OVCAR-8; read-out: GI50 5a): 400 nM | GI50 (RPMI-8226; read-out: GI50 5a): 380 nM | GI50 (SK-MEL-5): 320 nM | GI50 (SK-OV-3; read-out: GI50 5a): 620 nM | GI50 (UACC-62; read-out: GI50 5a): 50 nM

CC(=O)NC1=C(C#N)C(c2ccccc2)c2ccc3ccccc3c2O1 (stereo not shown) [6a, N-(3-Cyano-4-phenyl-4H-benzo[h]chromen-2-yl)acetamide]
GI50 (A498; read-out: GI50 6a): 200 nM | GI50 (A549/ATCC; read-out: GI50 6a): 980 nM | GI50 (BT-549; read-out: GI50 6a): 990 nM | GI50 (CCRF-CEM; read-out: GI50 6a): 390 nM | GI50 (HL-60(TB); read-out: GI50 6a): 290 nM | GI50 (K-562; read-out: GI50 6a): 320 nM | GI50 (MCF7; read-out: GI50 6a): 470 nM | GI50 (MDA-MB-231/ATCC; read-out: GI50 6a): 1250 nM | GI50 (MDA-MB-435; read-out: GI50 6a): 230 nM | GI50 (MDA-MB-468; read-out: GI50 6a): 240 nM | GI50 (NCI-H460; read-out: GI50 6a): 370 nM | GI50 (NCI/ADR-RES; read-out: GI50 6a): 300 nM | GI50 (OVCAR-8; read-out: GI50 6a): 630 nM | GI50 (RPMI-8226; read-out: GI50 6a): 410 nM | GI50 (SK-MEL-5; read-out: GI50 6a): 360 nM | GI50 (SK-OV-3; read-out: GI50 6a): 490 nM | GI50 (UACC-62; read-out: GI50 6a): 710 nM
